Our source for the IC50 values is US11306096B2, “4,6 dihydropyrrolo [3,4-C] pyrazole-5 (1H)-carbonitrile derivates for treating cancer” (MISSION THERAPEUTICS LIMITED, priority 2016, dated 2022).

The assay concerns the target USP7 (Homo sapiens (Human), UniProt Q93009). The assay can be described thus: USP7 Biochemical IC50 Assay. The following applies: FLAG-USP7; enzyme and compound incubated 30 min at room temp; TAMRA labelled peptide-ubiquitin fluorescence polarisation substrate; read after 2 hr; read-out: IC50 range. As to the method: The USP7 construct was PCR amplified and cloned into a pFLAG-CMV-6a vector (Sigma-Aldrich) with an N-terminal FLAG tag. HEK293T cells were transfected with FLAG-USP7 using TransIT-LT1 transfection reagent (Mirus) according to the manufacturer's instructions. Cells were harvested 40 hours after transfection. […] The resin was washed two times with low salt buffer plus protease inhibitors (complete mini, Roche) and phosphatase inhibitors (PhosSTOP mini, Roche) and one time with high salt buffer (20 mM Tris, pH 7.5, 500 mM NaCl, 0.5 mM EDTA, 5 mM beta-mercaptoethanol, protease inhibitors (complete mini, Roche) and phosphatase inhibitors (PhosSTOP mini, Roche). To elute the bound USP7, elution buffer (10 mM Tris, pH 7.5, 150 mM NaCl, 0.5 mM EDTA, 10% glycerol, 0.5% NP40, 5 mM beta-mercaptoethanol, 0.15 mg/ml 3×FLAG peptide (Sigma-Aldrich)) was added to the resin and incubated at 4° C. for 2.5 hours rotating. The resin was centrifuged at 4000 rpm for 30 seconds, and the supernatant containing purified FLAG-USP7 was removed and stored at −80° C.
USP7 Biochemical IC50 Assay
A typical 8-point dilution series would be 100, 30, 10, 3, 1, 0.3, 0.1, 0.03 μM final. […] Either 1 μl of 50% DMSO or diluted compound was added to the plate. USP7 was diluted in reaction buffer (20 mM Tris, pH 7.5, 100 mM NaCl, 0.05% Tween 20, 0.5 mg/ml BSA, 5 mM—beta mercaptoethanol) to the equivalent of 0.0025 μl/well and 10 μl of diluted USP7 was added to the compound. Enzyme and compound were incubated for 30 min at room temp. Reactions were initiated by the addition of 50 nM of TAMRA labelled peptide linked to ubiquitin via an iso-peptide bond as fluorescence polarisation substrate. Reactions were read immediately after addition of substrate and following a 2 hr incubation at room temperature. Readings were performed on a Pherastar Plus (BMG Labtech). λ Excitation 540 nm; λ Emission 590 nm.
A general note: Polarisation of emitted light reports the rotation of a fluorescent probe.

Chain of USP7 (Q93009 whole entry): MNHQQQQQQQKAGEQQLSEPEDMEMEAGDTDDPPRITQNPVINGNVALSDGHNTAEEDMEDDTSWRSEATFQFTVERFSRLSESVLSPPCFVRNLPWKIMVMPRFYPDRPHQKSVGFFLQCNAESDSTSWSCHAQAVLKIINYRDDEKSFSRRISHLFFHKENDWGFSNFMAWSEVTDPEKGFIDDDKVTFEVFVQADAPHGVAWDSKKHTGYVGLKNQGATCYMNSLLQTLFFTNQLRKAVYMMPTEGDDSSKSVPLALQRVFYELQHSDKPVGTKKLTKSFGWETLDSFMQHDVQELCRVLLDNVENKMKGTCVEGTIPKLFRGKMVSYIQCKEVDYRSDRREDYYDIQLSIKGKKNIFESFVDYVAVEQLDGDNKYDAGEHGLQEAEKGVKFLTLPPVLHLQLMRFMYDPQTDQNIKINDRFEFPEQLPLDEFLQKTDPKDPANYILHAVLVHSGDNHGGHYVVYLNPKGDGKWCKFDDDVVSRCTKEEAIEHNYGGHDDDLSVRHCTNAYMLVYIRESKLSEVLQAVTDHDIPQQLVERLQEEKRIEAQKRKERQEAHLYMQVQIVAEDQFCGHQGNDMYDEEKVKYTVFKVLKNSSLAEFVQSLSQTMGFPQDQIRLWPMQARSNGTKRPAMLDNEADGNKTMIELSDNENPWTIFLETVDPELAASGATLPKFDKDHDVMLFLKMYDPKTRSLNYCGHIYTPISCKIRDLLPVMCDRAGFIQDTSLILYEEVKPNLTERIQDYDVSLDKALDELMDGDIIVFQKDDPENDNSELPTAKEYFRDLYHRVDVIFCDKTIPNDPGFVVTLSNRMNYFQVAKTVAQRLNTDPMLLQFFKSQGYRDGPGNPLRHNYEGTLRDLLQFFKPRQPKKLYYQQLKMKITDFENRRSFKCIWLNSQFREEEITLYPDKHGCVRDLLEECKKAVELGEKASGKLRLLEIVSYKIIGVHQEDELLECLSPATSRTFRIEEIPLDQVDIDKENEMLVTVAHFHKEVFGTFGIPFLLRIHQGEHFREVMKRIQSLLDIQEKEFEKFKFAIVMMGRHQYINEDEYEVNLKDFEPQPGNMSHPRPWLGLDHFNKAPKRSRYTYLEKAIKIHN

What is called IC50 is the midpoint of a concentration-inhibition curve. With `Cc1cc(-c2n[nH]c3c2CN(C#N)C3)ccc1N1CCN(C)CC1` [Example 74, 3-(3-Methyl-4-(4-methylpiperazin-1-yl)phenyl)-4,6-dihydro-pyrrolo[3,4-c]pyrazole-5(1H)-carbonitrile], the IC50 was < 10 µM.

On to `COc1ccc(Cl)cc1-c1n[nH]c2c1CN(C#N)C2` [Example 77, 3-(5-Chloro-2-methoxyphenyl)-4,6-dihydropyrrolo[3,4-c]pyrazole-5(4H)-carbonitrile], for which the IC50 was < 10 µM. With `N#CN1Cc2cnn(-c3cccc(NS(=O)(=O)C4CC4)c3)c2C1` [Example 78, N-(3-(5-Cyano-5,6-dihydropyrrolo[3,4-c]pyrazol-1(4H)-yl)phenyl) cyclopropanesulfonamide] the figure was 10 to 30 µM; with `N#CN1Cc2[nH]nc(-c3ccc(C(=O)NCc4ccccc4)cc3F)c2C1` [Example 79, N-Benzyl-4-(5-cyano-1,4,5,6-tetrahydropyrrolo[3,4-c]pyrazol-3-yl)-3-fluorobenzamide], < 10 µM.
